Measurements from article PMC7265341, “Quantifying CDK inhibitor selectivity in live cells” (Nature Communications, 2020).
Read-outs that look alike come from different tables or passages of the source.

Columns and labels:
CDK18/Cyclin Y = CDK18/Cyclin Y (Homo sapiens, UniProt Q07002); assay: NanoBRET live-cell target engagement, CDK18-NanoLuc/Cyclin Y in HEK-293; type: binding; conditions: CDK18/Y
CDK3/Cyclin E1 = CDK3/Cyclin E1 (Homo sapiens, UniProt Q00526); assay: NanoBRET live-cell target engagement, CDK3-NanoLuc/Cyclin E1 in HEK-293; type: binding; conditions: CDK3/E1
CDK17/Cyclin Y = CDK17/Cyclin Y (Homo sapiens, UniProt Q00537); assay: NanoBRET live-cell target engagement, CDK17-NanoLuc/Cyclin Y in HEK-293; type: binding; conditions: CDK17/Y
CDK6/Cyclin D1 = CDK6/Cyclin D1 (Homo sapiens, UniProt Q00534); assay: NanoBRET live-cell target engagement, NanoLuc-CDK6/Cyclin D1 in HEK-293; type: binding; conditions: CDK6/D1
CDK11A/Cyclin L2 = target: T1, CDK11A/Cyclin L2 (Homo sapiens, UniProt Q9UQ88); assay: NanoBRET live-cell target engagement, CDK11A-NanoLuc/Cyclin L2 in HEK-293; type: binding; conditions: CDK11a/L2, 10µM
T1 sequence (Q9UQ88 1-783): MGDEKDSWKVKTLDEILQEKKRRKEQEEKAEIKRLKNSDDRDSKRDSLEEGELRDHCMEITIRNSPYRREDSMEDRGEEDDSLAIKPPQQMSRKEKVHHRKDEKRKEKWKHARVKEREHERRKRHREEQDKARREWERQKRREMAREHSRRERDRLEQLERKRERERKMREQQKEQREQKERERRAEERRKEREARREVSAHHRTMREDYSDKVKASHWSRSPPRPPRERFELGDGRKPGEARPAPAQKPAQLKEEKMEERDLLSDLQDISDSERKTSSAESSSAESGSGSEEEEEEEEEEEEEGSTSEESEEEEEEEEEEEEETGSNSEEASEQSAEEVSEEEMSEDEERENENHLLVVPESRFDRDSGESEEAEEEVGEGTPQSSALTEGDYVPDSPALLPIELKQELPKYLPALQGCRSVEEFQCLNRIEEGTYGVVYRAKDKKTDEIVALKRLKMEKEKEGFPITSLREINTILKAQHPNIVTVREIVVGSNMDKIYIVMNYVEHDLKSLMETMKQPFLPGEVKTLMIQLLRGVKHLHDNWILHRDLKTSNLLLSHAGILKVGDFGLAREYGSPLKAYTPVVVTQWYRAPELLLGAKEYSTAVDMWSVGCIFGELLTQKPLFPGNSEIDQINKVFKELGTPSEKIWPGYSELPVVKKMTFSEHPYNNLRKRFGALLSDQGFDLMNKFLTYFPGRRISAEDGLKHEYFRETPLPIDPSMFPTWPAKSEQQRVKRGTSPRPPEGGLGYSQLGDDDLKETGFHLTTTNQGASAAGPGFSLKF

CDK19/Cyclin C = CDK19/Cyclin C (Homo sapiens, UniProt Q9BWU1); assay: NanoBRET live-cell target engagement, NanoLuc-CDK19/Cyclin C in HEK-293
CDK2/Cyclin E1 = CDK2/Cyclin E1 (Homo sapiens, UniProt P24941); assay: NanoBRET live-cell target engagement, CDK2-NanoLuc/Cyclin E1 in HEK-293; type: binding; conditions: CDK2/E1
CDK1/Cyclin E1 = CDK1/Cyclin E1 (Homo sapiens, UniProt P06493); assay: NanoBRET live-cell target engagement, CDK1-NanoLuc/Cyclin E1 in HEK-293; type: binding
CDK4/Cyclin D1 = CDK4/Cyclin D1 (Homo sapiens, UniProt P11802); assay: NanoBRET live-cell target engagement, NanoLuc-CDK4/Cyclin D1 in HEK-293; type: binding; conditions: CDK4/D1
CDK20/Cyclin H = CDK20/Cyclin H (Homo sapiens, UniProt Q8IZL9); assay: NanoBRET live-cell target engagement, NanoLuc-CDK20/Cyclin H in HEK-293; type: binding; conditions: CDK20/H; 10µM
CDK13/Cyclin K = CDK13/Cyclin K (Homo sapiens, UniProt Q14004); assay: NanoBRET live-cell target engagement, CDK13-NanoLuc/Cyclin K in HEK-293; type: binding; conditions: CDK13/K, 10µM
CDK11B/Cyclin L2 = CDK11B/Cyclin L2 (Homo sapiens, UniProt P21127); assay: NanoBRET live-cell target engagement, CDK11B-NanoLuc/Cyclin L2 in HEK-293; type: binding; conditions: CDK11b/L2, 10µM
CDK15/Cyclin Y = CDK15/Cyclin Y (Homo sapiens, UniProt Q96Q40); assay: NanoBRET live-cell target engagement, NanoLuc-CDK15/Cyclin Y in HEK-293; type: binding; conditions: CDK15/Y
CDK9/Cyclin K = CDK9/Cyclin K (Homo sapiens, UniProt P50750); assay: NanoBRET live-cell target engagement, NanoLuc-CDK9/Cyclin K in HEK-293; type: binding; conditions: CDK9/K, 10µM
CDK8/Cyclin C = CDK8/Cyclin C (Homo sapiens, UniProt P49336); assay: NanoBRET live-cell target engagement, NanoLuc-CDK8/Cyclin C in HEK-293; type: binding; conditions: CDK8/C
CDK12/Cyclin K = CDK12/Cyclin K (Homo sapiens, UniProt Q9NYV4); assay: NanoBRET live-cell target engagement, CDK12-NanoLuc/Cyclin K in HEK-293; type: binding; conditions: CDK12/K, 10µM
CDK16/Cyclin Y = CDK16/Cyclin Y (Homo sapiens, UniProt Q00536); assay: NanoBRET live-cell target engagement, CDK16-NanoLuc/Cyclin Y in HEK-293; type: binding; conditions: CDK16/Y
CDK5/CDK5R1 = CDK5/CDK5R1 (Homo sapiens, UniProt Q00535); assay: NanoBRET live-cell target engagement, CDK5-NanoLuc/CDK5R1 in HEK-293; type: binding; conditions: CDK5/CDK5R1
CDK7 = CDK7 (Homo sapiens, UniProt P50613); assay: NanoBRET live-cell target engagement, NanoLuc-CDK7 in HEK-293; type: binding; conditions: CDK7
[1] = n=3 average ± SEM, n=2 average to 2 significant figures, read-out: IC50 (nM) Average*
[2] = read-out: IC50 (nM) Replicate 1
[3] = read-out: IC50 (nM) Replicate 2

Sequence of CDK5/CDK5R1 (Q00535 whole entry): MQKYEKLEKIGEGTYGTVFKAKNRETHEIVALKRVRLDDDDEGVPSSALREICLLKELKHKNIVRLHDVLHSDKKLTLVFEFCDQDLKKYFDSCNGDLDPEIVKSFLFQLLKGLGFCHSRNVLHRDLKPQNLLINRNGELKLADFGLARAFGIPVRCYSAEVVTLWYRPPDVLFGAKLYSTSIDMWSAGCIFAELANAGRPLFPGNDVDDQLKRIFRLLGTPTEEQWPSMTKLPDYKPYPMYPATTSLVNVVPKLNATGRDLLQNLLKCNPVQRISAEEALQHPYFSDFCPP
Sequence of CDK5/CDK5R1 (Q15078 whole entry partner): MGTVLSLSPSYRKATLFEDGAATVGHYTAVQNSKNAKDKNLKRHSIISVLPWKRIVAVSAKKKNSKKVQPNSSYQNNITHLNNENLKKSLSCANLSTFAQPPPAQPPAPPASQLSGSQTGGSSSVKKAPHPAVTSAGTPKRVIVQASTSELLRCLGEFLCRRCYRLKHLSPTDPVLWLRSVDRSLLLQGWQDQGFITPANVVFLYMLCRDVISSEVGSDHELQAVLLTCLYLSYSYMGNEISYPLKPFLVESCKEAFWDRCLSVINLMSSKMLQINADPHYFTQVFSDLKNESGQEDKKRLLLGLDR
Sequence of CDK15/Cyclin Y (Q96Q40 whole entry): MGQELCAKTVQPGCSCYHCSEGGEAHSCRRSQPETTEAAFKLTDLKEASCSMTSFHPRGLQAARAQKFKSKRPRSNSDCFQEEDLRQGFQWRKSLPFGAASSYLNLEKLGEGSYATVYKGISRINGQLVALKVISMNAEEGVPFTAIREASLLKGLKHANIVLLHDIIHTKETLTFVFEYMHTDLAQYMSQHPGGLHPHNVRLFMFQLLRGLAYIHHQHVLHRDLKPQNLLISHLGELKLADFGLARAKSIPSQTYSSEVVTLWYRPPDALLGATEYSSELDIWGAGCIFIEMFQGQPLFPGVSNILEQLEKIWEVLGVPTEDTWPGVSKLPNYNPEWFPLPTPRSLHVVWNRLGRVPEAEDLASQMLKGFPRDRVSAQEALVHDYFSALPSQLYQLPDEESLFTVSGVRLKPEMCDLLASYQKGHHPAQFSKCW
Sequence of CDK15/Cyclin Y (Q8ND76 whole entry partner): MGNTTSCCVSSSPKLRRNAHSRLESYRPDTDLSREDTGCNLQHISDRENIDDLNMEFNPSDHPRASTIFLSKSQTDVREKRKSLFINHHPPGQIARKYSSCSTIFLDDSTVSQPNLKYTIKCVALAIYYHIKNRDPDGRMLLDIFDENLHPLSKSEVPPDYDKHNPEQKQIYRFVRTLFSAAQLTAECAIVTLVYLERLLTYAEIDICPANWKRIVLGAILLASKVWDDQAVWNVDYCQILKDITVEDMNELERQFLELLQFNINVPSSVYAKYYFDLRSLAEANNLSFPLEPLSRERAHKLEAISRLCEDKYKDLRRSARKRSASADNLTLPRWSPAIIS
Sequence of CDK17/Cyclin Y (Q00537 whole entry): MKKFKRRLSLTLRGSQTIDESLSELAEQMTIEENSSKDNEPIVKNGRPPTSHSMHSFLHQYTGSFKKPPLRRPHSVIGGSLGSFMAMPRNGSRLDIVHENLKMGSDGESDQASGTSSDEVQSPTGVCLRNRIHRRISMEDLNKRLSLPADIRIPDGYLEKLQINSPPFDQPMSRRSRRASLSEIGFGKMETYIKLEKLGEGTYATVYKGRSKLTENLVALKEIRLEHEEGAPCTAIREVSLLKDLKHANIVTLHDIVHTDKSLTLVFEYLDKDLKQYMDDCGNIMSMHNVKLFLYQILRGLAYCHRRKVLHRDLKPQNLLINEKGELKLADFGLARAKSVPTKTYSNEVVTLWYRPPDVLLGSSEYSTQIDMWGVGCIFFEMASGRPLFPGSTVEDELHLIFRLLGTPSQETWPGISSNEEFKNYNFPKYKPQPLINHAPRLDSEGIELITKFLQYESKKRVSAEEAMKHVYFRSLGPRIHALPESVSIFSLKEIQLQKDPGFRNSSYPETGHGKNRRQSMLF
Sequence of CDK17/Cyclin Y (Q8ND76 whole entry partner): as the sequence (Q8ND76 whole entry partner) above
Sequence of CDK1/Cyclin E1 (P06493 whole entry): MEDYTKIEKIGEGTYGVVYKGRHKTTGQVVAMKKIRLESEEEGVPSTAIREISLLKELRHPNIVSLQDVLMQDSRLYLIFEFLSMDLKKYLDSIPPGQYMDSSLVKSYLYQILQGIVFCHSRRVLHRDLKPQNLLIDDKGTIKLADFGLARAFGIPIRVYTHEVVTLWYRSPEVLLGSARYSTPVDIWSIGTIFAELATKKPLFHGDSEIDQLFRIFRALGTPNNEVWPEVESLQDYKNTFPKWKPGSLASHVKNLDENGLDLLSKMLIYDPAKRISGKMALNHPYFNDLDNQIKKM
Sequence of CDK1/Cyclin E1 (P24864 whole entry partner): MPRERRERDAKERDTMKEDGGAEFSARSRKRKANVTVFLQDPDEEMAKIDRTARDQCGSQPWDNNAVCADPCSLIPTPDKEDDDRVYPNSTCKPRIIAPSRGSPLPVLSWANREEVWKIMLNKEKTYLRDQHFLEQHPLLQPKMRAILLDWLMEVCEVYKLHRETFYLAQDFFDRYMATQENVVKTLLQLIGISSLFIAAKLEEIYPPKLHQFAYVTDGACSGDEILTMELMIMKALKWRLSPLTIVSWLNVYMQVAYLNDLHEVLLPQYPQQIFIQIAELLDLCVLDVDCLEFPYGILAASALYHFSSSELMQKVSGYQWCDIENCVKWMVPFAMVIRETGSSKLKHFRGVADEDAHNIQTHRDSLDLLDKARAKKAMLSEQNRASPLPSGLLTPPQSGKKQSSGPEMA
Sequence of CDK13/Cyclin K (O75909 whole entry): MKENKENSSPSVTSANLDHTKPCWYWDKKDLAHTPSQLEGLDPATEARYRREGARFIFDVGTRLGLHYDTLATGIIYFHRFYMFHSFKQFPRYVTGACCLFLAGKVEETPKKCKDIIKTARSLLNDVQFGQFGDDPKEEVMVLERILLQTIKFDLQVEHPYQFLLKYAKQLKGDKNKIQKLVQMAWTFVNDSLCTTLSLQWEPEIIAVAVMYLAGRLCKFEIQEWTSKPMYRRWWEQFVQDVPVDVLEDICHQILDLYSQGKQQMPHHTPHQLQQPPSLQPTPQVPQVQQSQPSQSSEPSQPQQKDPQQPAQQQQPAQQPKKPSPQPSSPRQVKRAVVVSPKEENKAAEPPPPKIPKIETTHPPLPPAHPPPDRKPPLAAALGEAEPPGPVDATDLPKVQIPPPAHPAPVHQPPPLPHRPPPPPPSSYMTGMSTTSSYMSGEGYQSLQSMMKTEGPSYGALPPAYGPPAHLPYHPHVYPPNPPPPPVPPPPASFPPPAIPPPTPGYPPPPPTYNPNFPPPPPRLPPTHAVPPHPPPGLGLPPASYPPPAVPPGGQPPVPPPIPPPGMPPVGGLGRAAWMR
Sequence of CDK13/Cyclin K (Q14004 other isoform, or with tags, fused parts or gaps): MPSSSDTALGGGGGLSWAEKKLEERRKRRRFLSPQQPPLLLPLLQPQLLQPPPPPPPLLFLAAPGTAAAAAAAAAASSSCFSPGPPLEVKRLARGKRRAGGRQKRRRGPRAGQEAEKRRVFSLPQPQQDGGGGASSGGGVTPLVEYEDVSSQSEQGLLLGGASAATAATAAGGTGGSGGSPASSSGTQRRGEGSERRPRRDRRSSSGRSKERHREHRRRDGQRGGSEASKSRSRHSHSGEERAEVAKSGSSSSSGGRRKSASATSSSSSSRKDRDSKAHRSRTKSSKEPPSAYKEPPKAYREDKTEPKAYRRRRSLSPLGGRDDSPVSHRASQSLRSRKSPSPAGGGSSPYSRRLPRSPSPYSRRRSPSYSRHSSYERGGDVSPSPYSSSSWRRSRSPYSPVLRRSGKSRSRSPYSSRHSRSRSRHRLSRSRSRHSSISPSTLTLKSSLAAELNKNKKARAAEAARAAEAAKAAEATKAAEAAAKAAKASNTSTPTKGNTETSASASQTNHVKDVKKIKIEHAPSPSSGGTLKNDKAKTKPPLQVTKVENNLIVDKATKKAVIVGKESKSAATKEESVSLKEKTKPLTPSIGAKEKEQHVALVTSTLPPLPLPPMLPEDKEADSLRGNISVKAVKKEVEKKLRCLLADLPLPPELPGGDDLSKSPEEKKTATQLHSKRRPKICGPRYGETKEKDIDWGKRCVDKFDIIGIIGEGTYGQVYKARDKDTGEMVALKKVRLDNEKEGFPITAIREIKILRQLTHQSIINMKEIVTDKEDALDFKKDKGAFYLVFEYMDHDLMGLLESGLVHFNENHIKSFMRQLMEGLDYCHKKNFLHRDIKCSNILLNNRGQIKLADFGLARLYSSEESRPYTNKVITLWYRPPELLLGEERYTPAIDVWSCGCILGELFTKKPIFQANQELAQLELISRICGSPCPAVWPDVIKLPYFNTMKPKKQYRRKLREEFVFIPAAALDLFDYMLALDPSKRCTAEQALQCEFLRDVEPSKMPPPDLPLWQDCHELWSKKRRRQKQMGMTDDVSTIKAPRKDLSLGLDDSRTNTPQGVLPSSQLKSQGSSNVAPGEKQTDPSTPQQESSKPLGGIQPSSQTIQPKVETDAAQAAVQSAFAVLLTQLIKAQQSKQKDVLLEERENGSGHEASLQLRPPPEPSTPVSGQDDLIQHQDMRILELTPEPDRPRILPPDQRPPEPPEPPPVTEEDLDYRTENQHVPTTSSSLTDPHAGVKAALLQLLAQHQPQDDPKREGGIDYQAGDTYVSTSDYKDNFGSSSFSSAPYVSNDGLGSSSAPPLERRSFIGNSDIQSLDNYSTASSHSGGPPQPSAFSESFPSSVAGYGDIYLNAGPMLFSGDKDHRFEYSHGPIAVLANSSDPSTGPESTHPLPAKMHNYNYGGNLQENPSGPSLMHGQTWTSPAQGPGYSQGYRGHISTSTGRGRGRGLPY

## CNC1CCN(C(=O)c2ccc(Nc3ncc(F)c(-c4cnc(C)n4C(C)C)n3)cc2)C1 (centres unmarked) [AZD5597]
CDK18/Cyclin Y; 10µM
  Inhibition at 10µM (%) Replicate 1: 94.0%
  Inhibition at 10µM (%) Replicate 2: 101.0%
CDK18/Cyclin Y; 10µM, average of replicates
  Inhibition at 10µM (%) Average: 97.5%
CDK18/Cyclin Y; [1]
  IC50: 130 nM
CDK18/Cyclin Y; [2]
  IC50: 86 nM
CDK18/Cyclin Y; [3]
  IC50: 174 nM
CDK3/Cyclin E1; 10µM
  Inhibition at 10µM (%) Replicate 1: 99.1%
  Inhibition at 10µM (%) Replicate 2: 98.8%
CDK3/Cyclin E1; 10µM, average of replicates
  Inhibition at 10µM (%) Average: 98.9%
CDK3/Cyclin E1; [1]
  IC50: 3.4 nM
CDK3/Cyclin E1; [2]
  IC50: 1.6 nM
CDK3/Cyclin E1; [3]
  IC50: 5.2 nM
CDK17/Cyclin Y; 10µM
  Inhibition at 10µM (%) Replicate 1: 90.9%
  Inhibition at 10µM (%) Replicate 2: 91.8%
CDK17/Cyclin Y; 10µM, average of replicates
  Inhibition at 10µM (%) Average: 91.3%
CDK17/Cyclin Y; [1]
  IC50: 10 nM
CDK17/Cyclin Y; [2]
  IC50: 6.5 nM
CDK17/Cyclin Y; [3]
  IC50: 13 nM
CDK6/Cyclin D1; 10µM
  Inhibition at 10µM (%) Replicate 1: 99.7%
  Inhibition at 10µM (%) Replicate 2: 100.6%
CDK6/Cyclin D1; 10µM, average of replicates
  Inhibition at 10µM (%) Average: 100.1%
CDK6/Cyclin D1; [1]
  IC50: 8.3 nM
CDK6/Cyclin D1; [2]
  IC50: 10 nM
CDK6/Cyclin D1; [3]
  IC50: 6.5 nM
CDK11A/Cyclin L2
  Inhibition at 10µM (%) Replicate 1: 89.7%
  Inhibition at 10µM (%) Replicate 2: 90.1%
CDK11A/Cyclin L2; average of replicates
  Inhibition at 10µM (%) Average: 89.9%
CDK19/Cyclin C; CDK19/C, 10µM
  Inhibition at 10µM (%) Replicate 1: 88.7%
  Inhibition at 10µM (%) Replicate 2: 89.0%
CDK19/Cyclin C; CDK19/C, 10µM, average of replicates
  Inhibition at 10µM (%) Average: 88.9%
CDK19/Cyclin C; read-out: IC50 (nM) Average*, CDK19/Y, n=3 average ± SEM, n=2 average to 2 significant figures
  IC50: 240 nM
CDK19/Cyclin C; read-out: IC50 (nM) Replicate 1, CDK19/C
  IC50: 354 nM
CDK19/Cyclin C; read-out: IC50 (nM) Replicate 2, CDK19/C
  IC50: 119 nM
CDK2/Cyclin E1; 10µM
  Inhibition at 10µM (%) Replicate 1: 99.9%
  Inhibition at 10µM (%) Replicate 2: 99.7%
CDK2/Cyclin E1; 10µM, average of replicates
  Inhibition at 10µM (%) Average: 99.8%
CDK2/Cyclin E1; [1]
  IC50: 6.6 nM
CDK2/Cyclin E1; [2]
  IC50: 6.7 nM
CDK2/Cyclin E1; [3]
  IC50: 6.4 nM
CDK1/Cyclin E1; CDK1/E1, 10µM
  Inhibition at 10µM (%) Replicate 1: 93.8%
  Inhibition at 10µM (%) Replicate 2: 95.4%
CDK1/Cyclin E1; CDK1/E1, 10µM, average of replicates
  Inhibition at 10µM (%) Average: 94.6%
CDK1/Cyclin E1; CDK1/E1, n=3 average ± SEM, n=2 average to 2 significant figures, read-out: IC50 (nM) Average*
  IC50: 9 nM
CDK1/Cyclin E1; CDK1/E1, read-out: IC50 (nM) Replicate 1
  IC50: 9 nM
CDK1/Cyclin E1; CDK1/E1, read-out: IC50 (nM) Replicate 2
  IC50: 9 nM
CDK1/Cyclin E1; live HEK-293, 2 h, mean ± S.E.M. (n=3) or mean (n=2), read-out: IC50 for CDK/cyclin complexes, CDK1/E1
  IC50: 9 nM
CDK4/Cyclin D1; 10µM
  Inhibition at 10µM (%) Replicate 1: 101.0%
  Inhibition at 10µM (%) Replicate 2: 98.2%
CDK4/Cyclin D1; 10µM, average of replicates
  Inhibition at 10µM (%) Average: 99.6%
CDK4/Cyclin D1; [1]
  IC50: 7 nM
CDK4/Cyclin D1; [2]
  IC50: 7.4 nM
CDK4/Cyclin D1; [3]
  IC50: 6.6 nM
CDK20/Cyclin H
  Inhibition at 10µM (%) Replicate 1: 68.9%
  Inhibition at 10µM (%) Replicate 2: 74.8%
CDK13/Cyclin K
  Inhibition at 10µM (%) Replicate 1: 42.5%
  Inhibition at 10µM (%) Replicate 2: 57.5%
CDK13/Cyclin K; average of replicates
  Inhibition at 10µM (%) Average: 50.0%
CDK11B/Cyclin L2
  Inhibition at 10µM (%) Replicate 1: 88.8%
  Inhibition at 10µM (%) Replicate 2: 88.6%
CDK11B/Cyclin L2; average of replicates
  Inhibition at 10µM (%) Average: 88.7%
CDK15/Cyclin Y; 10µM
  Inhibition at 10µM (%) Replicate 1: 93.9%
  Inhibition at 10µM (%) Replicate 2: 95.6%
CDK15/Cyclin Y; 10µM, average of replicates
  Inhibition at 10µM (%) Average: 94.7%
CDK15/Cyclin Y; [1]
  IC50: 300 nM
CDK15/Cyclin Y; [2]
  IC50: 250 nM
CDK15/Cyclin Y; [3]
  IC50: 350 nM
CDK9/Cyclin K
  Inhibition at 10µM (%) Replicate 1: 98.2%
  Inhibition at 10µM (%) Replicate 2: 100.7%
CDK9/Cyclin K; average of replicates
  Inhibition at 10µM (%) Average: 99.5%
CDK8/Cyclin C; 10µM
  Inhibition at 10µM (%) Replicate 1: 91.3%
  Inhibition at 10µM (%) Replicate 2: 98.8%
CDK8/Cyclin C; 10µM, average of replicates
  Inhibition at 10µM (%) Average: 95.1%
CDK8/Cyclin C; [1]
  IC50: 370 nM
CDK8/Cyclin C; [2]
  IC50: 434 nM
CDK8/Cyclin C; [3]
  IC50: 297 nM
CDK12/Cyclin K
  Inhibition at 10µM (%) Replicate 1: 44.4%
  Inhibition at 10µM (%) Replicate 2: 42.5%
CDK12/Cyclin K; average of replicates
  Inhibition at 10µM (%) Average: 43.5%
CDK16/Cyclin Y; 10µM
  Inhibition at 10µM (%) Replicate 1: 88.2%
  Inhibition at 10µM (%) Replicate 2: 91.4%
CDK16/Cyclin Y; [1]
  IC50: 13 nM
CDK16/Cyclin Y; [2]
  IC50: 8.9 nM
CDK16/Cyclin Y; [3]
  IC50: 18 nM
CDK5/CDK5R1; 10µM
  Inhibition at 10µM (%) Replicate 1: 90.7%
  Inhibition at 10µM (%) Replicate 2: 97.1%
CDK5/CDK5R1; 10µM, average of replicates
  Inhibition at 10µM (%) Average: 93.9%
CDK5/CDK5R1; [1]
  IC50: 10 nM
CDK5/CDK5R1; [2]
  IC50: 8.2 nM
CDK5/CDK5R1; [3]
  IC50: 12 nM
CDK7; 10µM
  Inhibition at 10µM (%) Replicate 1: 95.4%
  Inhibition at 10µM (%) Replicate 2: 93.6%
CDK7; 10µM, average of replicates
  Inhibition at 10µM (%) Average: 94.5%
CDK7; [1]
  IC50: 120 nM
CDK7; [2]
  IC50: 100 nM
CDK7; [3]
  IC50: 150 nM
